We go through 53 compounds from ChEMBL document CHEMBL1156829 (Proc Natl Acad Sci U S A, 2008).

Each structure is given as a SMILES string. pEC50: −log10 of the molar value. Where only a bound is given, the exact number is not on record here.

For data set [1], the system named is Plasmodium falciparum. Kind of data set: NOVARTIS: Inhibition of Plasmodium falciparum 3D7 (drug-susceptible) proliferation in erythrocyte-based infection assay. It counts as functional, organism-based. The settings on record: Plasmodium falciparum, 3D7.
The test system of data set [2] is Plasmodium falciparum. Kind of data set: NOVARTIS: Inhibition of Plasmodium falciparum W2 (drug-resistant) proliferation in erythrocyte-based infection assay. In kind it is functional, organism-based. Conditions: Plasmodium falciparum, W2; read-out: EC50.
A short description of data set [3]: NOVARTIS: Cytotoxicity against human hepatocellular carcinoma cell line (Huh7). It counts as toxicity, cell-based, Huh-7. Conditions: Huh7 cells (hepatocellular carcinoma cell line).

With `CCN1CCN(c2ccc(Nc3c4ccccc4nc4ccccc34)cc2)CC1`, the pEC50 with Plasmodium falciparum [1] was 7.29; in the data set with Plasmodium falciparum [2] it was 6.80. The CC50 in data set [3] was found to be 17.4 µM.
The corresponding values for `Cc1nc([P+](c2ccccc2)(c2ccccc2)c2ccccc2)c(SCc2ccccc2)o1.[O-][Cl+3]([O-])([O-])[O-]` are 6.34, 6.21 and 68.3 µM.
For the compound `COc1ccc(C(NC(=O)COc2ccccc2)c2cc(Cl)c3cccnc3c2O)cc1` (centres undefined), the pEC50 was 5.45 with Plasmodium falciparum [1] and 6.04 in the data set with Plasmodium falciparum [2]. Further, the CC50 in data set [3] is > 100 µM.
Turning to `Fc1ccc2[nH]c3c(NCCN4CCCCC4)ncnc3c2c1`, the pEC50 was 6.81 with Plasmodium falciparum [1] and 6.67 with Plasmodium falciparum [2]. In data set [3], this compound had a CC50 of 23.7 µM.
The corresponding values for `CN(C)c1ccc(/C=C/c2nc(=O)c3ccccc3o2)cc1` are 6.89, 7.03 and > 10 µM.
The corresponding values for `O=C(Nc1ccc(-c2nc3ccccc3[nH]2)cc1)c1ccc(-c2cccc([N+](=O)[O-])c2)o1` are 5.65, 6.03 and > 100 µM.
The corresponding values for `Cc1cc(OC(C)C(=O)N2CCc3ccccc32)ccc1Cl` (centres undefined) are 6.05, 6.03 and > 100 µM.
Consider `O=[N+]([O-])c1ccc(-c2ccc(C=NNc3nc(Nc4ccccc4)nc(Nc4ccccc4)n3)o2)cc1`, for which the pEC50 is 6.06 in the data set with Plasmodium falciparum [1] and 6.03 in the data set with Plasmodium falciparum [2]. Moreover, the CC50 in data set [3] is > 100 µM.
The corresponding values for `Cc1cccn2c(NCc3ccccc3)c(-c3ccccc3OC(=O)C(C)Cl)nc12` (centres undefined) are 6.12, 6.03 and > 100 µM.
The corresponding values for `Cc1ccn2c(NC(C)(C)CC(C)(C)C)c(-c3ccccc3OC(=O)c3ccc(Cl)cc3)nc2c1` are 5.92, 7.11 and > 8.27 µM.
Consider `COc1cc(C=C(C#N)c2nc3ccccc3[nH]2)ccc1OCc1ccccc1F`, for which the pEC50 is 5.86 with Plasmodium falciparum [1] and 6.03 with Plasmodium falciparum [2]. In addition, the CC50 in data set [3] was > 100 µM.
The corresponding values for `Cc1ccc2cc(C)c(Nc3ccc(Cl)cc3)nc2c1` are 6.37, 6.24 and 61 µM.
As for `Cn1nc(C(=O)NCc2ccccc2)c2c1CCN(Cc1cccc(O)c1)C2`, the pEC50 is < 5.19 in the data set with Plasmodium falciparum [1] and 6.03 in the data set on Plasmodium falciparum [2]. Further, in data set [3], the CC50 was > 100 µM.
The corresponding values for `CN(C)CCCNc1ncnc2c1[nH]c1ccccc12` are 6.63, 6.03 and > 100 µM.
The corresponding values for `Oc1ccc(Br)cc1C=NNc1nc2ccccc2[nH]1` are 6.27, 6.30 and 54 µM.
Turning to `N#Cc1c(-c2ccccc2)cc(N2CCN(C3CCCCC3)CC2)n2c1nc1ccccc12`, the pEC50 in the data set on Plasmodium falciparum [1] was 6.63; in the data set on Plasmodium falciparum [2], 6.03. For the same compound, in data set [3], the CC50 was > 100 µM.
The corresponding values for `COc1ccc(C2C(C(=O)Nc3cccc(Cl)c3)c3ccccc3C(=O)N2C2CCCCC2)cc1` (centres undefined) are 5.81, 6.03 and > 100 µM.
The corresponding values for `CCN1CCC(N2CCC(n3c(Cc4ccccc4OC)nc4cc(F)ccc43)CC2)CC1` are 6.38, 6.46 and 37.7 µM.
The corresponding values for `C=CCc1cccc(C=NNc2nc3ccccc3[nH]2)c1O` are 6.18, 6.03 and > 100 µM.
`OC(CN1CCOCC1)Cn1c2ccc(Br)cc2c2cc(Br)ccc21` (centres undefined): the pEC50 is 6.00 with Plasmodium falciparum [1] and 6.36 in the data set on Plasmodium falciparum [2]. In data set [3], the CC50 is 47.5 µM.
The corresponding values for `Cc1ccc(Cn2c(C)c3cnn(CC(=O)O)c(=O)c3c2C)cc1` are < 5.05, 6.03 and > 100 µM.
With `O=C(Cn1c2ccccc2c(=O)c2ccccc21)Nc1ccc(Cl)cc1C(=O)c1ccccc1`, the pEC50 with Plasmodium falciparum [1] is 6.09; in the data set with Plasmodium falciparum [2] it was 6.03. In addition, the CC50 in data set [3] was > 100 µM.
On to `CCc1ccc(O)c(-c2cc(C(=O)Nc3cccnc3)[nH]n2)c1`, for which the pEC50 was 6.13 with Plasmodium falciparum [1] and 6.04 in the data set on Plasmodium falciparum [2]. Also, the CC50 in data set [3] is > 100 µM.
The corresponding values for `CN(C)CCCN(Cc1cc2cc3c(cc2[nH]c1=O)OCO3)C(=S)Nc1cccc(Cl)c1` are 6.01, 6.04 and > 100 µM.
The corresponding values for `COc1cccc(-c2ccc(O)c(CN(C)CC(O)c3ccccc3)c2)n1` (centres undefined) are 6.61, 7.04 and > 10 µM.
The corresponding values for `COc1ccc(/C=C/C(=O)NC(=O)c2ccccc2O)cc1` are 6.93, 7.04 and > 10 µM.
On to `C[n+]1c(/C=C/c2ccc(F)cc2)ccc2ccccc21`, for which the figures for the pEC50 in the data set with Plasmodium falciparum [1] and in the data set with Plasmodium falciparum [2] were 6.98 and 7.04, respectively. In addition, the CC50 in data set [3] is > 10 µM.
With `Cc1cccc(NC(=O)CCCn2c(=O)c3cccn3c3ccccc32)c1C`, the pEC50 was 6.11 with Plasmodium falciparum [1] and 6.04 with Plasmodium falciparum [2]. For the same compound, the CC50 in data set [3] is > 100 µM.
The corresponding values for `Cc1cc(N2CCN(CC=Cc3ccccc3)CC2)n2c(nc3ccccc32)c1C#N` are 6.18, 6.03 and > 100 µM.
The corresponding values for `COc1ccc(C2C(C(=O)Nc3cnc4ccccc4c3)c3ccccc3C(=O)N2Cc2ccc(F)cc2)cc1` (centres undefined) are 5.66, 6.03 and > 100 µM.
Take `c1ccc2[nH]c(Sc3ncnc4sc5c(c34)CCC5)nc2c1`: the pEC50 with Plasmodium falciparum [1] is 5.16; with Plasmodium falciparum [2], 6.04. Further, the CC50 in data set [3] was > 100 µM.
The corresponding values for `CCCCCCC[N+](CC)(CC)CCCCc1ccc(Cl)cc1` are 6.37, 7.04 and > 10 µM.
Take `CC(=O)N(C1=C(N2CCOCC2)C(=O)c2ccccc2C1=O)c1cc(C)cc(C)c1`: the pEC50 in the data set on Plasmodium falciparum [1] was 7.40; in the data set on Plasmodium falciparum [2], 7.20. In data set [3], this compound gave a CC50 of 6.94 µM.
Consider `COc1cc(C2C(C(=O)OCC(C)C)=C(C)NC3=C2C(=O)CC(c2ccccc2)C3)cc(Br)c1O` (centres undefined), for which the results for the pEC50 in the data set with Plasmodium falciparum [1] and with Plasmodium falciparum [2] were 6.07 and 6.04, respectively. Further, the CC50 in data set [3] was > 100 µM.
The corresponding values for `CCCCNC(=O)C1CCC(CN(Cc2c(Cl)cccc2Cl)S(=O)(=O)c2ccc(Br)cc2)CC1` (centres undefined) are 6.26, 6.04 and > 100 µM.
Consider `CCN(CC)c1ccc(N=Cc2ccc(Sc3nc4ccccc4s3)o2)cc1`, for which the pEC50 in the data set with Plasmodium falciparum [1] was 6.57; in the data set on Plasmodium falciparum [2] it was 7.01. In data set [3], this compound showed a cytotoxic concentration (CC50) of 10.8 µM.
The corresponding values for `c1ccc(-c2cc(NCc3ccco3)nc(-c3ccccn3)n2)nc1` are 6.74, 7.04 and > 10 µM.
The corresponding values for `Cc1cc(Cl)ccc1NC(=O)c1ccccc1[N+](=O)[O-]` are 5.68, 6.03 and > 100 µM.
On to `COc1ccc(N2C(=O)C3C(C2=O)C2(c4ccccc4)C(=O)C3(c3ccccc3)C(c3ccc4c(c3)OCO4)=C2c2ccc3c(c2)OCO3)c([N+](=O)[O-])c1` (centres undefined), for which the results for the pEC50 in the data set on Plasmodium falciparum [1] and with Plasmodium falciparum [2] were 5.94 and 6.03, respectively. Also, the CC50 in data set [3] is > 100 µM.
With `CCCCCCCCCCCC(=O)Oc1ccccc1-c1nc2ccccn2c1NC(C)(C)CC(C)(C)C`, the pEC50 in the data set with Plasmodium falciparum [1] was 5.90; in the data set with Plasmodium falciparum [2], 7.03. In addition, in data set [3], the CC50 is > 10 µM.
Consider `COc1ccc(OCC(=O)Nc2cccc(-c3nc4ncccc4o3)c2)cc1`, for which the pEC50 in the data set on Plasmodium falciparum [1] was 5.83; with Plasmodium falciparum [2] it was 6.03. Further, in data set [3], the CC50 is > 100 µM.
The corresponding values for `CCCCCc1ccc(C(=O)Oc2ccccc2-c2nc3cc(C)ccn3c2NC(C)(C)CC(C)(C)C)cc1` are 6.13, 7.03 and > 10 µM.
Turning to `CCSc1nc2sc3c(c2c(=O)n1CC)CCN(C)C3`, the pEC50 in the data set with Plasmodium falciparum [1] is 5.85; in the data set on Plasmodium falciparum [2], 6.03. In data set [3], the CC50 is > 100 µM.
The corresponding values for `Cc1cccc(N2CCN(c3nc4ccccc4c4nnc(C)n34)CC2)c1C` are 5.36, 6.03 and > 100 µM.
The corresponding values for `COc1cc(-c2cc(C)c3c(OC)ccc(OC)c3n2)cc2c1OCCN(C(=O)CCn1nc(C)cc1C)C2` are 5.57, 6.04 and > 100 µM.
Regarding `Cc1c(C)c2c(c(C)c1O)CC[C@](C)(CN1CCN(c3cc(N4CCCC4)nc(N4CCCC4)n3)CC1)O2`, the pEC50 is 6.76 in the data set on Plasmodium falciparum [1] and 6.42 in the data set with Plasmodium falciparum [2]. The midpoint of cytotoxicity in data set [3], the CC50, lay at 42 µM.
The corresponding values for `Cc1ccc(NC(=O)C2CSC(c3cccc(F)c3)N2C(=O)c2ccc(C(C)(C)C)cc2)cc1C` (centres undefined) are 6.22, 8.10 and 0.848 µM.
The corresponding values for `COc1ccc(NC(=O)C2=C(C)Nc3c(C(=O)Nc4ccc(C)cc4)cnn3C2c2cccc(Cl)c2)cc1` (centres undefined) are 5.60, 6.03 and > 100 µM.
As to `CCNC(=O)NCCSc1nc(-c2ccccc2)c(-c2ccccc2)n1CC`, the pEC50 was 5.79 in the data set on Plasmodium falciparum [1] and 6.04 in the data set with Plasmodium falciparum [2]. Further, in data set [3], the CC50 is > 100 µM.
The corresponding values for `CCC(C)(C)C1CCc2sc3ncnc(NN=Cc4c(Cl)cccc4Cl)c3c2C1` (centres undefined) are 6.13, 6.04 and > 100 µM.
Regarding `COc1cc(C(=O)C=CNc2ccc(N(C)C)cc2)cc(OC)c1OC`, the pEC50 in the data set on Plasmodium falciparum [1] was 5.68; in the data set on Plasmodium falciparum [2], 6.04. For the same compound, the CC50 in data set [3] was > 100 µM.
Regarding `S=C(NC1CCCCC1)NC1CC2CCC(C1)N2Cc1ccccc1` (centres undefined), the pEC50 in the data set with Plasmodium falciparum [1] is 5.53; in the data set on Plasmodium falciparum [2], 6.33. Further, in data set [3], the midpoint of cytotoxicity, the CC50, lay at 51.5 µM.
Regarding `CCCCCCCCCCCC(=O)N(C)CCCNc1ccnc2cc(Cl)ccc12`, the pEC50 in the data set with Plasmodium falciparum [1] was 6.65; with Plasmodium falciparum [2] it was 7.56. Also, it took 3.01 µM to reach half-maximal cytotoxicity in data set [3] (CC50).

Usually pEC50 stands for the EC50 on a negative log10 scale, so that one unit is a factor of ten. As a reminder, the CC50 is the concentration at which the toxic effect on the cells reaches its halfway point. A low value points to harm at low concentration.
